From patent US11207312B2, “Metallo-beta-lactamase inhibitors and methods of use thereof” (priority 2017, dated 2021)
Like-named read-outs stand apart in the source and are kept apart here.

What was measured:
NDM-1 = NDM-1 (Klebsiella pneumoniae, UniProt C7C422); experiment: biochemical; format: biochemical; settings: CCF2-FA fluorescence assay, 2 hours at 25° C.
Method in brief: (§1)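 Each enzyme (final 1 pM NDM-1, 2 pM IMP-1, 30 pM VIM-1) was incubated with test inhibitor (20 μM to 0.00063 μM) and 1.25 μM CCF2-FA for 2 hours at 25° C in zinc-supplemented phosphate buffer, pH 7. Fluorescence at 460 nm was then read and IC50 fitted with four parameters.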

IMP-1 = IMP-1 (Serratia marcescens, UniProt P52699); experiment: biochemical; settings: CCF2-FA fluorescence assay, 2 hours at 25° C.; read-out: IMP1 IC50
Sequence of IMP-1 (P52699 whole entry, looked up, species assumed): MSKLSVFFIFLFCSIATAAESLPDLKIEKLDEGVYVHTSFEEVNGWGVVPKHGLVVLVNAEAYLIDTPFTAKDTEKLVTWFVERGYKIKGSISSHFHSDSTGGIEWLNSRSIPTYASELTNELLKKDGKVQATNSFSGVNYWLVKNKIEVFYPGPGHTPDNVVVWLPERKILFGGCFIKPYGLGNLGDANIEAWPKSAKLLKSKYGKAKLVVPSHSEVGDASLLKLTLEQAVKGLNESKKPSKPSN
Method in brief: as §1

VIM-1 = VIM-1 (Pseudomonas aeruginosa (strain ATCC 15692 / DSM 22644 / CIP 104116 / JCM 14847 / LMG 12228 / 1C / PRS 101 / PAO1), UniProt A0A0F7KYQ8); experiment: biochemical; settings: CCF2-FA fluorescence assay, 2 hours at 25° C.; read-out: VIM1 IC50
Method in brief: as §1

VIM-2 = VIM-2 (Escherichia coli, UniProt Q5U7L7); experiment: biochemical
[1] = test system: Escherichia coli expressing NDM-1 (CLB30016); format: cell-based; settings: with imipenem 1 μg/ml; 95% inhibition of bacterial growth
Method in brief: (§2)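 MITC95 denotes the minimal test-compound level that, combined with 1 μg/ml imipenem, blocks 95% of bacterial growth, measured by absorbance. Overnight-grown clinical isolates were diluted 1:100 in CAMHB and incubated with both agents at 35° C for 22–24 h.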

[2] = test system: Klebsiella pneumoniae expressing VIM-1 (IHMA599644); format: cell-based; settings: with imipenem 1 μg/ml; 95% inhibition of bacterial growth
Method in brief: as §2

[3] = test system: Serratia marcescens expressing IMP-1 (CL5741); format: cell-based; settings: with imipenem 1 μg/ml; 95% inhibition of bacterial growth
Method in brief: as §2

[4] = test system: P. aeruginosa MB9798 (efflux+, IMP-1 plasmid); settings: for MB9798 MITC95 P. aeruginosa uM Efflux WT: efflux + (MB9798) strain, imipenem at 2 μg/mL, in the presence of a class A, C, D serine β-lactamase inhibitor closely related to relebactam; for Efflux ratio: fold difference between efflux+ (MB9798) and efflux− (MB9799) strains
Method in brief: (§3)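 PAO1-derived isogenic pair (oprD+, inducible AmpC), efflux+ MB5919 or efflux− MB5890 parent, carrying an electroporated IMP-1 plasmid from a clinical isolate. Microbroth MIC with fixed imipenem and/or ceftazidime (usually CLSI breakpoint) plus fixed class A/C inhibitor; MBL inhibitor serially titrated, concentration restoring susceptibility recorded.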

[5] = test system: P. aeruginosa MB9799 (efflux-, IMP-1 plasmid); format: cell-based, Pseudomonas aeruginosa; settings: efflux − (MB9799) strain; imipenem at 2 μg/mL; in the presence of a class A, C, D serine β-lactamase inhibitor closely related to relebactam
Method in brief: as §3

[6] = CCF2-FA fluorescence assay, read-out: VIM2 IC50

Sequence of NDM-1 (C7C422 whole entry, looked up, species assumed): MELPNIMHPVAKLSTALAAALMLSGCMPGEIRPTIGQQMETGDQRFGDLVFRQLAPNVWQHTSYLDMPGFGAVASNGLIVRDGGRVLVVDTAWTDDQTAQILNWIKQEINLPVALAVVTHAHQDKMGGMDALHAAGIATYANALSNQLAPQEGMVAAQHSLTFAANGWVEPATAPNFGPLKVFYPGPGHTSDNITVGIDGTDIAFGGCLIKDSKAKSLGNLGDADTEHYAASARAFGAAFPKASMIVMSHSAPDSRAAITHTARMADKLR

| Structure (SMILES) | IC50 (NDM-1) [nM] | IC50 (IMP-1) [nM] | IC50 (VIM-1) [nM] | IC50 (VIM-2; [6]) [nM] | CLB30016 E. coli MITC95 NDM [1] [µM] | IHMA599644 K. pneumoniae MITC95 VIM [2] [µM] | CL5741 S. marcescens MITC95 IMP [3] [µM] | MB9798 MITC95 P. aeruginosa uM Efflux WT [4] [µM] | Efflux ratio [4] | MB9799 MITC95 P. aeruginosa uM Efflux Mutant [5] [µM] | IC50 (VIM-2; VIM2 IC50, CCF2-FA fluorescence assay) [nM] |
| --- | --- | --- | --- | --- | --- | --- | --- | --- | --- | --- | --- |
| NC[C@@H](O)CNS(=O)(=O)c1ccc(N[C@H]2C[C@@H](N)C2)c(-c2nnn[nH]2)c1S(N)(=O)=O [Example 143, N1-((R)-3-amino-2-hydroxypropyl)-4-(((1s,3S)-3-aminocyclobutyl)amino)-3-(1H-tetrazol-5-yl)benzene-1,2-disulfonamide] | 111 | 70.4 | 100 | 200 | 1.56 | 12.50 | 1.56 | 6.25 | 2.00 | 3.13 | – |
| CN1CCN(c2ccc(S(=O)(=O)N[C@@H]3CCNC3)c(S(N)(=O)=O)c2-c2nnn[nH]2)CC1=O [Example 65, 4-(4-methyl-3-oxopiperazin-1-yl)-N1-[(3R)-pyrrolidin-3-yl]-3-(1H-tetrazol-5-yl)benzene-1,2-disulfonamide] | 1.28 | 2.26 | 0.22 | 1 | 3.13 | 6.25 | 3.13 | 3.13 | 2.00 | 1.56 | – |
| NC[C@@H](O)CNS(=O)(=O)c1ccc(N2CCC(C(N)CO)CC2)c(-c2nn[nH]n2)c1S(N)(=O)=O (single isomer, unassigned) [Example 180] | 5.73 | 6.3 | 0.44 | – | 0.39 | 1.56 | 0.78 | 0.78 | 1.00 | 0.78 | 5.92 |
| NCCC1CCN(c2ccc(S(=O)(=O)N[C@H](CN)CO)c(S(N)(=O)=O)c2-c2nn[nH]n2)CC1 [Example 188, (R)-N1-(1-amino-3-hydroxypropan-2-yl)-4-(4-(2-aminoethyl)piperidin-1-yl)-3-(2H-tetrazol-5-yl)benzene-1,2-disulfonamide] | 2.86 | 3.68 | 0.13 | 4.85 | 0.78 | 1.56 | 0.78 | 0.78 | 1.00 | 0.78 | – |
| NS(=O)(=O)c1c(S(=O)(=O)N[C@@H]2CCNC2)ccc(N2CCCC(O)C2=O)c1-c1nn[nH]n1 (stereo partly drawn) [Example 148, 4-(3-hydroxy-2-oxopiperidin-1-yl)-N1-((R)-pyrrolidin-3-yl)-3-(2H-tetrazol-5-yl)benzene-1,2-disulfonamide] | 0.76 | 28.1 | 0.35 | 1.5 | 0.39 | 3.13 | 1.56 | 3.13 | 2.00 | 1.56 | – |
| NC[C@@H](O)CNS(=O)(=O)c1ccc(N2CCC(NCCO)CC2)c(-c2nn[nH]n2)c1S(N)(=O)=O [Example 142, (R)-N1-(3-amino-2-hydroxypropyl)-4-(4-((2-hydroxyethyl)amino)piperidin-1-yl)-3-(2H-tetrazol-5-yl)benzene-1,2-disulfonamide bis(2,2,2-trifluoroacetate)] | 7.59 | 5.95 | 0.42 | 9.26 | 0.39 | 1.56 | 0.78 | 0.78 | 1.00 | 0.78 | – |
| NCCN1CCN(c2ccc(S(=O)(=O)NC[C@H](O)CN)c(S(N)(=O)=O)c2-c2nn[nH]n2)CC1=O [Example 147, (R)-N1-(3-amino-2-hydroxypropyl)-4-(4-(2-aminoethyl)-3-oxopiperazin-1-yl)-3-(2H-tetrazol-5-yl)benzene-1,2-disulfonamide] | 27 | 39.6 | 0.28 | 56.2 | 0.39 | 1.56 | 0.78 | 3.13 | 4.00 | 0.78 | – |
| NCCOCC1CCN(c2ccc(S(=O)(=O)NC[C@H](O)CN)c(S(N)(=O)=O)c2-c2nn[nH]n2)CC1 [Example 208] | 1.05 | 1.84 | 0.11 | 1.19 | 1.56 | 3.13 | 0.78 | 0.78 | 1.00 | 0.78 | – |
| NC[C@@H](O)CNS(=O)(=O)c1ccc(N2CCC(CCn3cccn3)CC2)c(-c2nn[nH]n2)c1S(N)(=O)=O [Example 27, (R)-4-(4-(2-(1H-pyrazol-1-yl)ethyl)piperidin-1-yl)-N^1-(3-amino-2-hydroxypropyl)-3-(2H-tetrazol-5-yl)benzene-1,2-disulfonamide] | 0.07 | 0.05 | 0.06 | 0.18 | 3.13 | 6.25 | 3.13 | 25.00 | 15.99 | 1.56 | – |
| NCCC(=O)N1CCN(c2ccc(S(=O)(=O)NC[C@H](O)CN)c(S(N)(=O)=O)c2-c2nn[nH]n2)CC1 [Example 145, (R)—N1-(3-amino-2-hydroxypropyl)-4-(4-(3-aminopropanoyl)piperazin-1-yl)-3-(2H-tetrazol-5-yl)benzene-1,2-disulfonamide] | 1.68 | 4.7 | 0.46 | 8.32 | 0.39 | 1.56 | 0.78 | 0.78 | 1.00 | 0.78 | – |
| NS(=O)(=O)c1c(S(=O)(=O)N[C@@H]2CCNC2)ccc(N2CCNC2=S)c1-c1nn[nH]n1 [Example 191, (R)—N1-(pyrrolidin-3-yl)-3-(2H-tetrazol-5-yl)-4-(2-thioxoimidazolidin-1-yl)benzene-1,2-disulfonamide] | 0.94 | 25.2 | 0.21 | 1.15 | 0.78 | 3.13 | 1.56 | 6.25 | 4.00 | 1.56 | – |
| NS(=O)(=O)c1c(S(=O)(=O)N[C@@H]2CCNC2)ccc(N2CCC(CCF)CC2)c1-c1nnn[nH]1 [Example 87, 4-[4-(2-fluoroethyl)piperidin-1-yl]-N1-[(3R)-pyrrolidin-3-yl]-3-(1H-tetrazol-5-yl)benzene-1,2-disulfonamide] | 0.16 | 0.24 | 0.12 | 0.49 | 1.56 | 3.13 | 3.13 | 12.50 | 8.00 | 1.56 | – |
| NC[C@@H](O)CNS(=O)(=O)c1ccc(N2CC[C@@H](CN)C2)c(-c2nn[nH]n2)c1S(N)(=O)=O [Example 121, N1-((R)-3-amino-2-hydroxypropyl)-4-((S)-3-(aminomethyl)pyrrolidin-1-yl)-3-(2H-tetrazol-5-yl)benzene-1,2-disulfonamide] | 58.7 | 66.8 | 4.54 | 30.4 | 1.56 | 0.78 | 1.56 | 6.25 | 2.00 | 3.13 | – |
